Results from US8431706B2, “1,2,3,4-tetrahydroqinoline derivative useful for the treatment of diabetes” (Eli Lilly and Company, priority 2011, dated 2013).

Tests used:
[1] = system: primary rodent pancreatic islets of Langerhans; assay: GDIS assay in primary rodent pancreatic islets; type: cell-based; details: 3.0 uM with rat islets and 11.2 mM glucose; compared to 11.2 mM glucose; 90 min; P<0.05
Source text: Because activation of GPR40 is known to result in insulin secretion, which is dependent on high glucose concentrations, two separate assay systems (an insulinoma cell line and primary rodent islets) are developed to further characterize compounds that are known to increase intracellular calcium in the GPR40 primary assay discussed above.
GDIS assays using primary rodent pancreatic islets of Langerhans are also used to characterize the exemplified compound. Pancreatic islets are isolated from male SD (Sprague Dawley) rats by collagenase digestion and Histopaque density gradient separation. The islets are cultured overnight in RPMI-1640 medium with GlutaMAXn (stabilized, dipeptide form of L-glutamine (Invitrogen catalog #61870-010)) to facilitate recovery from the isolation process. Insulin secretion is determined by a 90 minute incubation in EBSS (Earle's Balances Salt Solution) buffer in a 48-well plate. Briefly, islets are first preincubated in EBSS with 2.8 mM glucose for 30 min, and are then transferred to a 48-well plate (four islets/well) containing 150 μl 2.8 mM glucose, and incubated with 150 μl of EBSS with 2.8 or 11.2 mM glucose in the presence or absence of test compound for 90 minutes. The buffer is removed from the wells at the end of the incubation, and assayed for insulin levels using the Rat Insulin ELISA kit (Mercodia). […]

Gal4 PPARδ = target: T1, Gal4 PPARδ (Homo sapiens, UniProt Q03181); assay: Gal4 PPARδ reporter functional assay in CV1 cells; type: cell-based; details: examined up to 10 μM; luciferase reporter; 24 hours
T1 construct: expressed in transfected cells; host or cells: CV1 (African green monkey kidney)
T1 sequence (Q03181 211-439 limits assumed): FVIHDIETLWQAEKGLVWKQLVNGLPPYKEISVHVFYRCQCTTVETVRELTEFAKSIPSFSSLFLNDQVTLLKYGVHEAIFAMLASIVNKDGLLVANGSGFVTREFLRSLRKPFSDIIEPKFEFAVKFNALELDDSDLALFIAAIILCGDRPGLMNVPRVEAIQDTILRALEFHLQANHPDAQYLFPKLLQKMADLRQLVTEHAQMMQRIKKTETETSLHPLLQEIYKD
Source text: Gal4 PPARα, Gal4 PPARδ, and PPARγ reporter functional assays are also used to monitor the selectivity of the exemplified compound. CV1 cells, which are derived from the renal tissue of an African green monkey, are transfected with various receptor and reporter plasmids using Fugene. For the Gal4 PPARα and PPARδ assays, a reporter plasmid containing five tandem copies of the yeast transcription protein Gal4 response element, cloned upstream of a firefly luciferase gene driven by the major late promoter of adenovirus, is transfected together with a Simian Virus 40 (SV40) driven plasmid constitutively expressing a hybrid protein containing the Gal4 DNA binding domain (DBD), and either the PPARα or PPARδ ligand binding. For the PPARγ assay, plasmids encoding PPARγ and RXRα, both driven by a cytomegalovirus (CMV) promoter are transfected together with a plasmid containing luciferase reporter cDNA driven by the TK promoter and a receptor response element (2×PPRE). Cells are transfected in T225 cm^2 cell culture flasks in DMEM media with 5% charcoal-stripped FBS. […] After 24 hours incubation with the compound, cells are lysed and luciferase activity is determined as a measure of receptor activation by luminescence. […] The maximum percent stimulation is determined versus maximum stimulation obtained with 10 μM of an appropriate PPAR agonist reference compound. […]

functional activation of PPARδ (Gal4 PPARδ): No functional activation
SMILES: CC#C[C@@H](CC(=O)O)c1ccc(OCc2ccc(CN3CCCc4cccc(OC)c43)s2)cc1 [Example 1, (3S)-3-[4-[[5-[(8-Methoxy-3,4-dihydro-2H-quinolin-1-yl)methyl]-2-thienyl]methoxy]phenyl]hex-4-ynoic acid]
increase in insulin [1]: 2.1 fold
